# Values of other authors in patent US20210121408A1, “Methods of Administering Cannabinoid to People Diagnosed With HIV” (priority 2019, published 2021).
structure (smiles),measurement,setting,value
"CCCCCc1cc(O)c2c(c1)OC(C)(C)[C@@H]1CCC(C)=C[C@@H]21 [THC, delta-9-tetrahydrocannabinol]","solubility in ethanol, acetone, chloroform and light petroleum","ethanol, acetone, chloroform and light petroleum",soluble
same,solubility in water,water,insoluble
